Experimental data from ChEMBL document CHEMBL1201862, “PubChem BioAssay data set” (2004).
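Results reflect a 48-hour exposure of cells in 96-well plates to compound at five concentrations. At the GI50, growth is halved.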 Calls of active or inactive are those of the source. No stated cut-off is given here; in the data, active = GI50 up to about 1.1 µM and inactive = higher.

What was measured:
Experiment in all cases: DTP human tumour cell line panel, 48 h
[1] = system: CCRF-CEM
[2] = system: COLO 205
[3] = system: HCT-15
[4] = system: HL-60
[5] = system: HOP-92
[6] = system: Hs-578T
[7] = system: IGROV-1
[8] = system: LOX IMVI
[9] = system: MDA-MB-435
[10] = system: MDA-N
[11] = system: NCI-H23
[12] = system: NCI/ADR-RES
[13] = system: OVCAR-3
[14] = system: OVCAR-4
[15] = system: SF-295
[16] = system: SK-MEL-28
[17] = system: SK-MEL-2
[18] = system: SR
[19] = system: UACC-62
[20] = system: HCC 2998

Structure (SMILES)	GI50 [1]	GI50 [2]	GI50 [3]	GI50 [4]	GI50 [5]	GI50 [6]	GI50 [7]	GI50 [8]	GI50 [9]	GI50 [10]	GI50 [11]	GI50 [12]	GI50 [13]	GI50 [14]	GI50 [15]	GI50 [16]	GI50 [17]	GI50 [18]	GI50 [19]	GI50 [20]
c1ccc(NN(Cc2cnccn2)c2ccccc2)cc1	10.5 µM (inactive)	84.3 µM (inactive)	79.8 µM	67.5 µM (inactive)	19.1 µM (inactive)	> 100 µM (inactive)	83.2 µM (inactive)	77.6 µM (inactive)	89.9 µM (inactive)	40.2 µM (inactive)	83 µM (inactive)	40.5 µM (inactive)	63.4 µM (inactive)	63 µM (inactive)	73.8 µM (inactive)	> 100 µM (inactive)	> 100 µM (inactive)	61.9 µM (inactive)	81.8 µM (inactive)	
Cc1ccc(NC(=O)C(=O)C2C(=O)C3=C(CC2(C)C)NC2C=CC=CC2S3)c(C)c1 (stereo not given)	> 100 µM (inactive)	> 100 µM (inactive)	> 100 µM	> 100 µM (inactive)	38.1 µM (inactive)	51.3 µM (inactive)	49.3 µM (inactive)	> 100 µM (inactive)	> 100 µM (inactive)	> 100 µM (inactive)	> 100 µM (inactive)	> 100 µM (inactive)		> 100 µM (inactive)	> 100 µM (inactive)	> 100 µM (inactive)	> 100 µM (inactive)		> 100 µM (inactive)	> 100 µM (inactive)
O=CN1CCN(CC(O)CN2CCCCC2)CC1 (stereo not given)	> 100 µM (inactive)	> 100 µM (inactive)	> 100 µM	> 100 µM (inactive)		> 100 µM (inactive)	> 100 µM (inactive)	> 100 µM (inactive)	> 100 µM (inactive)	> 100 µM (inactive)	> 100 µM (inactive)	> 100 µM (inactive)	> 100 µM (inactive)	> 100 µM (inactive)	> 100 µM (inactive)	> 100 µM (inactive)	> 100 µM (inactive)	> 100 µM (inactive)	> 100 µM (inactive)	
COc1ccc(/N=C/N(C)C)c(C)c1	3.28 µM (inactive)	10.5 µM (inactive)	35.3 µM	0.13 µM (active)	10.5 µM (inactive)	1.52 µM (inactive)	9.48 µM (inactive)	3.15 µM (inactive)	6.08 µM (inactive)	6.18 µM (inactive)	2 µM (inactive)	44.7 µM (inactive)	2.36 µM (inactive)	9.42 µM (inactive)	11 µM (inactive)	12.6 µM (inactive)	5.15 µM (inactive)		7.08 µM (inactive)	
COC1CC(C)(NC(C)=O)C2OC(c3ccccc3)OCC2O1 (stereo not given)	> 100 µM (inactive)	> 100 µM (inactive)	> 100 µM	> 100 µM (inactive)	> 100 µM (inactive)	> 100 µM (inactive)	> 100 µM (inactive)	> 100 µM (inactive)	> 100 µM (inactive)	> 100 µM (inactive)	> 100 µM (inactive)	> 100 µM (inactive)	> 100 µM (inactive)	> 100 µM (inactive)	> 100 µM (inactive)	> 100 µM (inactive)		> 100 µM (inactive)	> 100 µM (inactive)	
Cc1ccc2c(=O)cc(-c3ccc(-c4ccccc4)s3)[nH]c2n1	> 25.2 µM (inactive)	> 100 µM (inactive)	> 28.8 µM	> 23.6 µM (inactive)	> 41.2 µM (inactive)	> 46.7 µM (inactive)	34.9 µM (inactive)	> 48.3 µM (inactive)	5.33 µM (inactive)	4.98 µM (inactive)	22.1 µM (inactive)	> 57.1 µM (inactive)	24.8 µM (inactive)	38.5 µM (inactive)	> 28.8 µM (inactive)	> 100 µM (inactive)	> 100 µM (inactive)	2.43 µM (inactive)	17 µM (inactive)	
CN1C(=O)c2ccccc2C(O)(c2ccccc2)C1(O)c1ccccc1 (stereo not given)	> 100 µM (inactive)	> 100 µM (inactive)	> 100 µM		14.4 µM (inactive)	29.2 µM (inactive)	58.5 µM (inactive)	> 100 µM (inactive)	> 100 µM (inactive)	> 100 µM (inactive)	81.8 µM (inactive)	> 100 µM (inactive)	> 100 µM (inactive)	72.8 µM (inactive)	> 100 µM (inactive)	> 100 µM (inactive)	> 100 µM (inactive)	43 µM (inactive)	64.4 µM (inactive)	87.9 µM (inactive)
Cc1n[nH]c(=O)n1N1C(=O)c2ccccc2C1=O	> 100 µM (inactive)	> 100 µM (inactive)	> 100 µM		> 100 µM (inactive)	> 100 µM (inactive)	> 100 µM (inactive)	> 100 µM (inactive)	> 100 µM (inactive)	> 100 µM (inactive)	> 100 µM (inactive)	> 100 µM (inactive)	> 100 µM (inactive)	> 100 µM (inactive)	> 100 µM (inactive)	> 100 µM (inactive)	> 100 µM (inactive)	> 100 µM (inactive)	> 100 µM (inactive)	> 100 µM (inactive)
CCC(c1ccccc1)c1cc(C(C)(C)C)cc(C(C)(C)C)c1O (stereo not given)		18.7 µM (inactive)	16.8 µM		16.5 µM (inactive)	16.3 µM (inactive)	17 µM (inactive)	18 µM (inactive)	18.2 µM (inactive)	17.1 µM (inactive)	17.2 µM (inactive)	15.4 µM (inactive)	14.2 µM (inactive)	15.8 µM (inactive)	13.9 µM (inactive)	18.3 µM (inactive)	15.7 µM (inactive)	31.7 µM (inactive)	18 µM (inactive)	15.8 µM (inactive)
CSc1c(C#N)c(=O)n(N)c2c1c(C)nn2-c1ccccc1	19.4 µM (inactive)	17.3 µM (inactive)	22.1 µM	26.2 µM (inactive)		51.4 µM (inactive)		20.6 µM (inactive)	30.9 µM (inactive)	35.6 µM (inactive)	18.9 µM (inactive)	24.3 µM (inactive)	25.1 µM (inactive)	23.6 µM (inactive)		35.4 µM (inactive)	19.3 µM (inactive)	23.6 µM (inactive)	22 µM (inactive)	18.1 µM (inactive)
CC1(C)CNC(c2ccc3c(c2)Cc2cc(C4=NC(C)(C)CN4)ccc2-3)=N1	48.2 µM (inactive)	28.2 µM (inactive)	> 100 µM		90.8 µM (inactive)	64.7 µM (inactive)	> 100 µM (inactive)	37 µM (inactive)	32.8 µM (inactive)	39.8 µM (inactive)	35.1 µM (inactive)	> 100 µM (inactive)	35.7 µM (inactive)	32.9 µM (inactive)	> 100 µM (inactive)	38.7 µM (inactive)	20.1 µM (inactive)	32.5 µM (inactive)	25.3 µM (inactive)	26.2 µM (inactive)
CCOC(=O)CNC1=Nc2ccccc2C(=O)N2CSCC12 (stereo not given)	> 100 µM (inactive)	> 100 µM (inactive)	> 100 µM			> 100 µM (inactive)	> 100 µM (inactive)	> 100 µM (inactive)	> 100 µM (inactive)	> 100 µM (inactive)		> 100 µM (inactive)	> 100 µM (inactive)	> 100 µM (inactive)	> 100 µM (inactive)	> 100 µM (inactive)	> 100 µM (inactive)	> 100 µM (inactive)	> 100 µM (inactive)	> 100 µM (inactive)
CN(c1ccc(Cl)cc1)S(=O)(=O)c1ccccc1	46.2 µM (inactive)	47.2 µM (inactive)	52.2 µM	15 µM (inactive)		> 100 µM (inactive)	> 100 µM (inactive)	42.8 µM (inactive)	41.3 µM (inactive)	64.9 µM (inactive)	30.8 µM (inactive)	36 µM (inactive)	64.3 µM (inactive)	77.1 µM (inactive)	65.3 µM (inactive)	54.8 µM (inactive)	> 100 µM (inactive)	32.1 µM (inactive)	48.4 µM (inactive)	84.1 µM (inactive)
Cc1ccccc1N/N=C1\C(=O)Nc2ccccc21	> 100 µM (inactive)	95.1 µM (inactive)	> 100 µM	> 100 µM (inactive)		> 100 µM (inactive)	0.0132 µM (active)	> 100 µM (inactive)	> 100 µM (inactive)	> 100 µM (inactive)	> 100 µM (inactive)	> 100 µM (inactive)	> 100 µM (inactive)	> 100 µM (inactive)	> 100 µM (inactive)	> 100 µM (inactive)	> 100 µM (inactive)	> 100 µM (inactive)	> 100 µM (inactive)	> 100 µM (inactive)
O=[N+]([O-])c1cc(/N=N/c2c(O)ccc3cc(S(=O)(=O)O)ccc23)c(O)c([N+](=O)[O-])c1	18.9 µM (inactive)	> 100 µM (inactive)	51.8 µM	11.1 µM (inactive)	> 100 µM (inactive)	> 100 µM (inactive)	> 100 µM (inactive)	49 µM (inactive)	> 100 µM (inactive)	> 100 µM (inactive)	> 100 µM (inactive)	> 100 µM (inactive)	63.1 µM (inactive)	> 100 µM (inactive)	44.9 µM (inactive)	> 100 µM (inactive)	> 100 µM (inactive)		> 100 µM (inactive)	
